Drawing on patent EP0443862A1, “Triamine derivatives and their acid-addition salts” (SUMITOMO PHARMACEUTICALS COMPANY, LIMITED, priority 1990, dated 1991), this text covers ED50 for 5 molecules.

The test system of this experiment is NMDA-induced tonic convulsion. In words: Inhibition of NMDA-induced tonic convulsion in mice. It is filed as in vivo. The note with it: Mus musculus, ip, 0.5 h, i.p., 30 minutes before NMDA injected intracerebroventicularly, read-out: Inhibition potency of NMDA-induced tonic convulsion (ED50; mg/kg, i.p.). As for the experimental part:
A test compound was injected intraperitoneally in mice. After 30 minutes from the administration, NMDA was injected intracerebroventicularly, and it was observed whether there was a tonic convulsion. ED₅₀ (mg/kg, i.p.) was calculated out from the inhibition rates.

The ED50 is the midpoint of the dose-response relation. On to `c1cnc2c(NCCNCCNc3cccc4cccnc34)cccc2c1` [Example 1], for which the ED50 came to 16.4 mg/kg.

In the case of `c1ccc2c(NCCNCCNc3cccc4ccccc34)cccc2c1` [Example 2], the ED50 is more than 30 mg/kg.

As to `c1cc2c(c(NCCNCCNc3cccc4c3CCCC4)c1)CCCC2` [Example 3], the ED50 was more than 30 mg/kg.

As for `c1ccc2c(NCCCNCCNc3cccc4ccccc34)cccc2c1` [Example 4], the ED50 was more than 30 mg/kg.

As for `Clc1ccc(NCCNCCNc2ccc(Cl)c3ccccc23)c2ccccc12` [Example 5], the ED50 came out at 24.8 mg/kg.
